Here are results for 19 compounds from US8846675B2, “N-linked heterocyclic receptor agonists for the treatment of diabetes and metabolic disorders” (Cymabay Therapeutics, Inc., priority 2007, dated 2014).

Assay [1] addresses T1, IC-GPCR2 (Homo sapiens, UniProt Q8TDV5, S309L).
T1 construct: expressed in transfected cells
T1 sequence (Q8TDV5 1-335 S309L): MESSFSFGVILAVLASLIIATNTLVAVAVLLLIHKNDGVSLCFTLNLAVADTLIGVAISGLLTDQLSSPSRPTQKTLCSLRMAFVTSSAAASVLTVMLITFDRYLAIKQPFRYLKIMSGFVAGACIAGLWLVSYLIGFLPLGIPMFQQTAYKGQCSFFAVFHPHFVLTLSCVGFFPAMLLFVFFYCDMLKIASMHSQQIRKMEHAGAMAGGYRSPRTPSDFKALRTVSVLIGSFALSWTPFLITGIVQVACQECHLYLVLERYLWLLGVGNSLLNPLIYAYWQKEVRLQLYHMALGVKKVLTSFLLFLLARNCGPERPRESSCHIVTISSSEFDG
Description: Stimulation of cAMP in CHO cell line stably expressing IC-GPCR2 (HTRF cAMP dynamic kit). The conditions noted are these: 3 μM compound; IC-GPCR2 stably expressing CHO cells; not included in Table 1. It is filed as cell-based. In outline: (§1)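 CHO cells stably expressing IC-GPCR2, with parental CHO as counter-screen, were exposed to compound (0.00003–10 μM) for 30 min in Ham's F12. Intracellular cAMP read by HTRF competitive immunoassay (665/620 nm ratio). Activity at 3 μM expressed as % of maximal signal from a reference agonist.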
(In general: In TR-FRET formats the signal depends on donor and acceptor labels being close together.)

The target of assay [2] is T2, IC-GPCR2 (Homo sapiens, UniProt Q8TDV5).
T2 construct: expressed in transfected cells
T2 sequence (Q8TDV5 1-335 S309L): T1 sequence (Q8TDV5 1-335 S309L)
Described as above. It is filed as cell-based. The conditions noted are these: 3 μM compound; relative to maximal activity of 5-Ethyl-2-{4-[4-(4-tetrazol-1-yl-phenoxymethyl)-thiazol-2-yl]-piperidin-1-yl}-pyrimidine (=100%); IC-GPCR2 stably expressing CHO cells, 30 minutes. In outline: as §1

Molecules are shown by their SMILES.

`Cc1nc(C)c(S(=O)(=O)N2CCC(n3ncc(COc4ccc(-n5cnnn5)nc4)n3)CC2)s1` [Example 39, 5-(4-(4-((6-(1H-Tetrazol-1-yl)pyridin-3-yloxy)methyl)-2H-1,2,3-triazol-2-yl)piperidin-1-ylsulfonyl)-2,4-dimethylthiazole]: the “activity when tested at 3 μM (in words)” value in assay [1] is on record as “did not exhibit activity”.

In the case of `Cn1cnc(S(=O)(=O)N2CCC(n3ncc(COc4ccc(-n5cnnn5)nc4)n3)CC2)c1` [Example 42, 5-((2-(1-(1-Methyl-1H-imidazol-4-ylsulfonyl)piperidin-4-yl)-2H-1,2,3-triazol-4-yl)methoxy)-2-(1H-tetrazol-1-yl)pyridine], in assay [1], the “activity when tested at 3 μM (in words)” value was “did not exhibit activity”.

`Cc1noc(C)c1S(=O)(=O)N1CCC(n2ncc(COc3ccc(-n4cnnn4)nc3)n2)CC1` [Example 43, 4-(4-(4-((6-(1H-Tetrazol-1-yl)pyridin-3-yloxy)methyl)-2H-1,2,3-triazol-2-yl)piperidin-1-ylsulfonyl)-3,5-dimethylisoxazole]: the “activity when tested at 3 μM (in words)” value in assay [1] is recorded as “did not exhibit activity”.

As for `C[C@H](NC(=O)OC(C)(C)C)C(=O)N1CCC(n2ncc(COc3ccc(-n4cnnn4)nc3)n2)CC1` [Example 53, (S)-tert-Butyl 1-(4-(4-((6-(1H-tetrazol-1-yl)pyridin-3-yloxy)methyl)-2H-1,2,3-triazol-2-yl)piperidin-1-yl)-1-oxopropan-2-ylcarbamate], the “activity when tested at 3 μM (in words)” value in assay [1] is on record as “did not exhibit activity”.

Take `COC(=O)c1cc(C)nc(N2CCC(n3ncc(COc4ccc(-n5cnnn5)nc4)n3)CC2)n1` [Example 79, Methyl 2-(4-(4-((6-(1H-tetrazol-1-yl)pyridin-3-yloxy)methyl)-2H-1,2,3-triazol-2-yl)piperidin-1-yl)-6-methylpyrimidine-4-carboxylate]: the “activity when tested at 3 μM (in words)” value in assay [1] is “did not exhibit activity”.

With `Cn1nc(OCc2cnn(C3CCN(c4ncc(Cl)cn4)CC3)n2)cc1C(F)(F)F` [Example 97, 5-Chloro-2-{4-[4-(1-methyl-5-trifluoromethyl-1H-pyrazol-3-yloxymethyl)-[1,2,3]-triazol-2-yl]-piperidin-1-yl}-pyrimidine], the “activity when tested at 3 μM (in words)” value in assay [1] is on record as “did not exhibit activity”.

As for `CC(C)COC(=O)N1CCC(n2ncc(COc3ccc(-n4cnnn4)cc3F)n2)CC1` [Example 101, Isobutyl 4-(4-((2-fluoro-4-(1H-tetrazol-1-yl)phenoxy)methyl)-2H-1,2,3-triazol-2-yl)piperidine-1-carboxylate], in assay [2], the “% activity at 3 μM” value was found to be 50.67%.

In the case of `O=C(OCc1ccccc1)N1CCC(n2ncc(COc3ccc(-n4cnnn4)cc3F)n2)CC1` [Example 102, Benzyl 4-(4-((2-fluoro-4-(1H-tetrazol-1-yl)phenoxy)methyl)-2H-1,2,3-triazol-2-yl)piperidine-1-carboxylate], the “% activity at 3 μM” value in assay [2] was determined as 38.98%.

`CC(C)COC(=O)N1CCC(n2ncc(COc3ccc(S(C)(=O)=O)cc3F)n2)CC1` [Example 103, Isobutyl 4-(4-((2-fluoro-4-(methylsulfonyl)phenoxy)methyl)-2H-1,2,3-triazol-2-yl)piperidine-1-carboxylate]: in assay [2], the “% activity at 3 μM” value is given as 51.30%.

In the case of `CS(=O)(=O)c1ccc(OCc2cnn(C3CCN(C(=O)OCc4ccccc4)CC3)n2)c(F)c1` [Example 104, Benzyl 4-(4-((2-fluoro-4-(methylsulfonyl)phenoxy)methyl)-2H-1,2,3-triazol-2-yl)piperidine-1-carboxylate], the “% activity at 3 μM” value in assay [2] came out at 28.40%.

For `CCOC(=O)c1cnc(N2CCC(n3ncc(COc4ccc(S(C)(=O)=O)cc4F)n3)CC2)nc1` [Example 105, Ethyl 2-(4-(4-((2-fluoro-4-(methylsulfonyl)phenoxy)methyl)-2H-1,2,3-triazol-2-yl)piperidin-1-yl)pyrimidine-5-carboxylate], in assay [2], the “% activity at 3 μM” value is 10.65%.

For `CCOC(=O)c1cnc(N2CCC(n3ncc(COc4ccc(-n5cnnn5)cc4F)n3)CC2)nc1` [Example 106, Ethyl 2-(4-(4-((2-fluoro-4-(1H-tetrazol-1-yl)phenoxy)methyl)-2H-1,2,3-triazol-2-yl)piperidin-1-yl)pyrimidine-5-carboxylate], in assay [2], the “% activity at 3 μM” value was 11.46%.

Turning to `CS(=O)(=O)c1ccc(OCc2cnn(C3CCN(c4ncc(F)cn4)CC3)n2)c(F)c1` [Example 107, 5-Fluoro-2-(4-(4-((2-fluoro-4-(methylsulfonyl)phenoxy)methyl)-2H-1,2,3-triazol-2-yl)piperidin-1-yl)pyrimidine], in assay [2], the “% activity at 3 μM” value is 36.83%.

With `O=C(c1ccccn1)N1CCC(n2ncc(COc3ccc(-n4cnnn4)cc3F)n2)CC1` [Example 108, (4-(4-((2-Fluoro-4-(1H-tetrazol-1-yl)phenoxy)methyl)-2H-1,2,3-triazol-2-yl)piperidin-1-yl)(pyridin-2-yl)methanone], in assay [2], the “% activity at 3 μM” value is 41.78%.

For `O=C(c1cccc(O)n1)N1CCC(n2ncc(COc3ccc(-n4cnnn4)cc3F)n2)CC1` [Example 109, (4-(4-((2-Fluoro-4-(1H-tetrazol-1-yl)phenoxy)methyl)-2H-1,2,3-triazol-2-yl)piperidin-1-yl)(6-hydroxypyridin-2-yl)methanone], the “% activity at 3 μM” value in assay [2] is given as 7.45%.

Turning to `O=C(c1ncccc1O)N1CCC(n2ncc(COc3ccc(-n4cnnn4)cc3F)n2)CC1` [Example 110, (4-(4-((2-Fluoro-4-(1H-tetrazol-1-yl)phenoxy)methyl)-2H-1,2,3-triazol-2-yl)piperidin-1-yl)(3-hydroxypyridin-2-yl)methanone], the “% activity at 3 μM” value in assay [2] turned out to be 1.30%.

In the case of `Cc1cccnc1C(=O)N1CCC(n2ncc(COc3ccc(-n4cnnn4)cc3F)n2)CC1` [Example 111, (4-(4-((2-Fluoro-4-(1H-tetrazol-1-yl)phenoxy)methyl)-2H-1,2,3-triazol-2-yl)piperidin-1-yl)(3-methylpyridin-2-yl)methanone], in assay [2], the “% activity at 3 μM” value is given as 24.12%.

For `O=C(c1cccnc1)N1CCC(n2ncc(COc3ccc(-n4cnnn4)cc3F)n2)CC1` [Example 112, (4-(4-((2-Fluoro-4-(1H-tetrazol-1-yl)phenoxy)methyl)-2H-1,2,3-triazol-2-yl)piperidin-1-yl)(pyridin-3-yl)methanone], in assay [2], the “% activity at 3 μM” value was determined as 42.30%.

With `CCc1cnc(N2CCC(n3ccc(COc4ccc(-n5cnnn5)cc4F)n3)CC2)nc1` [Example 113, 5-Ethyl-2-(4-(3-((2-fluoro-4-(1H-tetrazol-1-yl)phenoxy)methyl)-1H-pyrazol-1-yl)piperidin-1-yl)pyrimidine], the “% activity at 3 μM” value in assay [2] was found to be 57.71%.
